Holding throughout (test): AK assay 384-well format, Prestwick library screening
One assay concerns K. pneumoniae. It is filed as cell-based, Klebsiella pneumoniae. To be noted: 50 μM final drug concentration; for fold induction at 50 µM: Klebsiella pneumoniae, 3 h.
Assay [1] relates to A. baumannii strain 98-37-09. It is filed as cell-based, Acinetobacter baumannii. The settings on record: 50 μM final drug concentration; for fold induction at 50 µM: Acinetobacter baumannii, 983709, 3 h.
The next assay relates to E. coli. Format: cell-based, Escherichia coli. To be noted: 50 μM final drug concentration; for fold induction at 50 µM: Escherichia coli, 3 h.
The test system of another assay is E. faecium. It is filed as cell-based, Enterococcus faecium. To be noted: 50 μM final drug concentration; for fold induction at 50 µM: Enterococcus faecium, 3 h.
Assay [2] has as its system S. aureus strain USA300-0114. Format: cell-based, Staphylococcus aureus. The settings on record: 50 μM final drug concentration; for fold induction at 50 µM: Staphylococcus aureus, USA300, 3 h.
The next assay concerns P. aeruginosa. Format: cell-based, Pseudomonas aeruginosa. The settings on record: 50 μM final drug concentration; for fold induction at 50 µM: Pseudomonas aeruginosa, 3 h.
The subject of a further assay is E. cloacae. Format: cell-based, Enterobacter cloacae. The settings on record: 50 μM final drug concentration; for fold induction at 50 µM: Enterobacter cloacae, 3 h.
[3] abbreviates: planktonic K. pneumoniae, positive cutoff 3-fold increase, read-out: AK-based Prestwick library screening result, K. pneumoniae (fold increase in extracellular AK activity).
[4] abbreviates: planktonic A. baumannii, positive cutoff 3-fold increase, read-out: AK-based Prestwick library screening result, A. baumannii (fold increase in extracellular AK activity).
The mark [5] stands for this setting: planktonic E. coli, positive cutoff 3-fold increase, read-out: AK-based Prestwick library screening result, E. coli (fold increase in extracellular AK activity).
Where [6] appears, read: planktonic E. faecium, positive cutoff 3-fold increase, read-out: AK-based Prestwick library screening result, E. faecium (fold increase in extracellular AK activity).
[7] abbreviates: planktonic S. aureus, positive cutoff 3-fold increase, read-out: AK-based Prestwick library screening result, S. aureus (fold increase in extracellular AK activity).
The mark [8] stands for this setting: planktonic P. aeruginosa, positive cutoff 3-fold increase, read-out: AK-based Prestwick library screening result, P. aeruginosa (fold increase in extracellular AK activity).
[9] abbreviates: planktonic E. cloacae, positive cutoff 3-fold increase, read-out: AK-based Prestwick library screening result, E. cloacae (fold increase in extracellular AK activity).
[10] abbreviates: planktonic, cutoff for positive-scoring molecules 3-fold increase.
Where [11] appears, read: planktonic, cutoff for positive-scoring molecules 3-fold increase, read-out: AK-based Prestwick Library Screening Results, K. pneumoniae (fold increase in extracellular AK activity).
Where [12] appears, read: planktonic, cutoff for positive-scoring molecules 3-fold increase, read-out: AK-based Prestwick Library Screening Results, A. baumannii (fold increase in extracellular AK activity).
Where [13] appears, read: planktonic, cutoff for positive-scoring molecules 3-fold increase, read-out: AK-based Prestwick Library Screening Results, E. coli (fold increase in extracellular AK activity).
[14] abbreviates: planktonic, cutoff for positive-scoring molecules 3-fold increase, read-out: AK-based Prestwick Library Screening Results, E. faecium (fold increase in extracellular AK activity).
Setting [15] is: planktonic, cutoff for positive-scoring molecules 3-fold increase, read-out: AK-based Prestwick Library Screening Results, S. aureus (fold increase in extracellular AK activity).
[16] abbreviates: planktonic, cutoff for positive-scoring molecules 3-fold increase, read-out: AK-based Prestwick Library Screening Results, P. aeruginosa (fold increase in extracellular AK activity).
Where [17] appears, read: planktonic, cutoff for positive-scoring molecules 3-fold increase, read-out: AK-based Prestwick Library Screening Results, E. cloacae (fold increase in extracellular AK activity).
Setting [18] is: 384-well format, cutoff for positive-scoring molecules 3-fold increase.

Structures can show the parent of a compound that is named as a salt. Where two headings read alike, the source gives them in different places.

Take `CNNCc1ccc(C(=O)NC(C)C)cc1` [Procarbazine hydrochloride]: the fold induction at 50 µM is 1.1 in the assay with K. pneumoniae (setting [3]); 1.1 in assay [1] (setting [4]); 1 in the assay on E. coli (setting [5]); 1 with E. faecium (setting [6]); 1.1 in assay [2] (setting [7]); 0.9 in the assay with P. aeruginosa (setting [8]). Moreover, the fold induction at 50 µM in the assay on E. cloacae (setting [9]) was 1.7.

As to `COc1ccc(-c2ccc(=N)n(CCCC(=O)O)n2)cc1` [Gabazine], the fold induction at 50 µM turned out to be 0.8 in the assay with K. pneumoniae (planktonic K. pneumoniae, cutoff for positive-scoring molecules 3-fold increase, read-out: AK-based Prestwick Library Screening Results, K. pneumoniae (increase in extracellular AK activity)); 1.1 in assay [1] (planktonic A. baumannii, cutoff for positive-scoring molecules 3-fold increase, read-out: AK-based Prestwick Library Screening Results, A. baumannii (increase in extracellular AK activity)); 1 with E. coli (planktonic E. coli, cutoff for positive-scoring molecules 3-fold increase, read-out: AK-based Prestwick Library Screening Results, E. coli (increase in extracellular AK activity)); 1.1 in the assay with E. faecium (planktonic E. faecium, cutoff for positive-scoring molecules 3-fold increase, read-out: AK-based Prestwick Library Screening Results, E. faecium (increase in extracellular AK activity)); 1.1 in assay [2] (planktonic S. aureus, cutoff for positive-scoring molecules 3-fold increase, read-out: AK-based Prestwick Library Screening Results, S. aureus (increase in extracellular AK activity)); 1 in the assay on P. aeruginosa (planktonic P. aeruginosa, cutoff for positive-scoring molecules 3-fold increase, read-out: AK-based Prestwick Library Screening Results, P. aeruginosa (increase in extracellular AK activity)). In the assay with E. cloacae (planktonic E. cloacae, cutoff for positive-scoring molecules 3-fold increase, read-out: AK-based Prestwick Library Screening Results, E. cloacae (increase in extracellular AK activity)), the fold induction at 50 µM was 1.3.

Regarding `c1ccc2c(c1)CCCc1cc(NCCN3CCOCC3)nnc1-2` [SR-95639A], in the assay with K. pneumoniae (planktonic K. pneumoniae, 384-well, […]), the “AK-based Prestwick Library Screening Results: K. pneumoniae (increase in extracellular AK activity)” value is on record as 0.5. Also, the “AK-based Prestwick Library Screening Results: A. baumannii (increase in extracellular AK activity)” value in assay [1] (planktonic A. baumannii, 384-well, […]) is on record as 0.5. In addition, in the assay on E. coli (planktonic E. coli, 384-well, […]), the “AK-based Prestwick Library Screening Results: E. coli (increase in extracellular AK activity)” value stood at 0.5. In addition, the “AK-based Prestwick Library Screening Results: E. faecium (increase in extracellular AK activity)” value in the assay on E. faecium (planktonic E. faecium, 384-well, […]) worked out at 0.8. Besides, the “AK-based Prestwick Library Screening Results: S. aureus (increase in extracellular AK activity)” value in assay [2] (planktonic S. aureus, 384-well, […]) came out at 0.4. The “AK-based Prestwick Library Screening Results: P. aeruginosa (increase in extracellular AK activity)” value with P. aeruginosa (planktonic P. aeruginosa, 384-well, […]) is given as 0.4. For the same compound, the “AK-based Prestwick Library Screening Results: E. cloacae (increase in extracellular AK activity)” value in the assay on E. cloacae (planktonic E. cloacae, 384-well, […]) amounted to 0.4.

Regarding Trimipramine maleate salt, in the assay on K. pneumoniae (setting [10]), the “AK-based Prestwick Library Screening Results, K. pneumoniae (fold increase in extracellular AK activity)” value worked out at 0.6. Besides, in assay [1] (setting [10]), the “AK-based Prestwick Library Screening Results, A. baumannii (fold increase in extracellular AK activity)” value came to 0.6. The “AK-based Prestwick Library Screening Results, E. coli (fold increase in extracellular AK activity)” value in the assay with E. coli (setting [10]) was 0.6. For the same compound, the “AK-based Prestwick Library Screening Results, E. faecium (fold increase in extracellular AK activity)” value in the assay with E. faecium (setting [10]) came out at 0.9. Further, the “AK-based Prestwick Library Screening Results, S. aureus (fold increase in extracellular AK activity)” value in assay [2] (setting [10]) is 0.5. Further, in the assay on P. aeruginosa (setting [10]), the “AK-based Prestwick Library Screening Results, P. aeruginosa (fold increase in extracellular AK activity)” value stood at 0.6. Besides, the “AK-based Prestwick Library Screening Results, E. cloacae (fold increase in extracellular AK activity)” value in the assay with E. cloacae (setting [10]) came to 0.6.

For Avermectin B1, in the assay on K. pneumoniae (setting [10]), the “AK-based Prestwick Library Screening Results, K. pneumoniae (fold increase in extracellular AK activity)” value worked out at 0.6. Besides, the “AK-based Prestwick Library Screening Results, A. baumannii (fold increase in extracellular AK activity)” value in assay [1] (setting [10]) was found to be 0.8. In addition, in the assay with E. coli (setting [10]), the “AK-based Prestwick Library Screening Results, E. coli (fold increase in extracellular AK activity)” value was found to be 0.8. Also, in the assay with E. faecium (setting [10]), the “AK-based Prestwick Library Screening Results, E. faecium (fold increase in extracellular AK activity)” value turned out to be 1.2. Further, the “AK-based Prestwick Library Screening Results, S. aureus (fold increase in extracellular AK activity)” value in assay [2] (setting [10]) stood at 1.7. Besides, in the assay on P. aeruginosa (setting [10]), the “AK-based Prestwick Library Screening Results, P. aeruginosa (fold increase in extracellular AK activity)” value was 0.6. Also, the “AK-based Prestwick Library Screening Results, E. cloacae (fold increase in extracellular AK activity)” value with E. cloacae (setting [10]) came out at 0.9.

Take `O=C1OC(CN2CCOCC2)CN1/N=C/c1ccc([N+](=O)[O-])o1` (centres unmarked) [Furaltadone hydrochloride]: the fold induction at 50 µM in the assay with K. pneumoniae (setting [11]) was 2.6; in assay [1] (setting [12]) it was 1; with E. coli (setting [13]), 0.9; with E. faecium (setting [14]), 1.1; in assay [2] (setting [15]), 0.7; in the assay with P. aeruginosa (setting [16]), 1.1. Also, in the assay with E. cloacae (setting [17]), the fold induction at 50 µM is 1.7.

As for `O=c1cc(-c2ccc(O)cc2)oc2c([C@@H]3O[C@H](CO)[C@@H](O)[C@H](O)[C@H]3O)c(O)cc(O)c12` [Vitexin], the fold induction at 50 µM came out at 0.8 with K. pneumoniae (setting [11]); 0.7 in assay [1] (setting [12]); 0.8 in the assay with E. coli (planktonic, […], read-out: AK-based Prestwick Library Screening Results, E. coli (fold increase in extracellular AK activity)); 1 in the assay with E. faecium (setting [14]); 0.7 in assay [2] (setting [15]); 0.8 in the assay on P. aeruginosa (setting [16]). For the same compound, the fold induction at 50 µM with E. cloacae (setting [17]) was 0.8.

For the compound `c1ccc(CNc2ncnc3[nH]cnc23)cc1` [Aminopurine, 6-benzyl], the “AK-based Prestwick Library Screening Results, K. pneumoniae (increase in extracellular AK activity)” value with K. pneumoniae (setting [18]) came out at 0.8. The “AK-based Prestwick Library Screening Results, A. baumannii (increase in extracellular AK activity)” value in assay [1] (setting [18]) worked out at 0.8. Moreover, in the assay on E. coli (setting [18]), the “AK-based Prestwick Library Screening Results, E. coli (increase in extracellular AK activity)” value is listed as 0.9. The “AK-based Prestwick Library Screening Results, E. faecium (increase in extracellular AK activity)” value in the assay on E. faecium (setting [18]) is given as 0.9. Moreover, the “AK-based Prestwick Library Screening Results, S. aureus (increase in extracellular AK activity)” value in assay [2] (setting [18]) amounted to 0.7. For the same compound, in the assay on P. aeruginosa (setting [18]), the “AK-based Prestwick Library Screening Results, P. aeruginosa (increase in extracellular AK activity)” value worked out at 0.9. In addition, the “AK-based Prestwick Library Screening Results, E. cloacae (increase in extracellular AK activity)” value in the assay on E. cloacae (setting [18]) was 1.1.

Take `O=P1(NCCCl)OCCCN1CCCl` (centres unmarked) [Ifosfamide]: the fold induction at 50 µM in the assay on K. pneumoniae (setting [11]) was 0.7; in assay [1] (setting [12]) it was 0.8; with E. coli (setting [13]), 9; in the assay with E. faecium (setting [14]), 0.8; in assay [2] (setting [15]), 0.8; with P. aeruginosa (setting [16]) it was 0.9. Also, the fold induction at 50 µM in the assay on E. cloacae (setting [17]) came to 1.4.

For `CCCC1C(=O)N2C(N(C)C)=Nc3ccc(C)cc3N2C1=O` (centres unmarked) [Azapropazone], the fold induction at 50 µM was 0.9 in the assay with K. pneumoniae (setting [3]); 0.9 in assay [1] (setting [4]); 1.1 in the assay on E. coli (setting [5]); 1 in the assay with E. faecium (setting [6]); 0.8 in assay [2] (setting [7]); 1 with P. aeruginosa (setting [8]). In addition, the fold induction at 50 µM in the assay with E. cloacae (setting [9]) is 1.5.

Consider `CC1=NCCc2c1[nH]c1cc(O)ccc21` [Harmalol hydrochloride dihydrate], for which the fold induction at 50 µM with K. pneumoniae (planktonic, cutoff for positive 3-fold increase, read-out: AK-based Prestwick Library Screening Results, K. pneumoniae (fold increase in extracellular AK activity)) worked out at 0.8; in assay [1] (planktonic, cutoff for positive 3-fold increase, read-out: AK-based Prestwick Library Screening Results, A. baumannii (fold increase in extracellular AK activity)), 1.1; in the assay on E. coli (planktonic, cutoff for positive 3-fold increase, read-out: AK-based Prestwick Library Screening Results, E. coli (fold increase in extracellular AK activity)), 1.2; in the assay with E. faecium (planktonic, cutoff for positive 3-fold increase, read-out: AK-based Prestwick Library Screening Results, E. faecium (fold increase in extracellular AK activity)), 1; in assay [2] (planktonic, cutoff for positive 3-fold increase, read-out: AK-based Prestwick Library Screening Results, S. aureus (fold increase in extracellular AK activity)) it was 0.8; in the assay with P. aeruginosa (planktonic, cutoff for positive 3-fold increase, read-out: AK-based Prestwick Library Screening Results, P. aeruginosa (fold increase in extracellular AK activity)), 1.2. The fold induction at 50 µM in the assay on E. cloacae (planktonic, cutoff for positive 3-fold increase, read-out: AK-based Prestwick Library Screening Results, E. cloacae (fold increase in extracellular AK activity)) is 1.6.

(Values after patent US10004701B2, “Methods and compositions for treating infection” (UNIVERSITY OF ROCHESTER, priority 2012, dated 2018).)
